Experimental data taken from paper PMC10959927, “Platinum iodido drugs show potential anti-tumor activity, affecting cancer cell metabolism and inducing ROS and senescence in gastrointestinal cancer cells” (Communications Biology, 2024).
Where “and” joins values, the source holds several entries; their conditions need not be identical. Equal entries are not always repeated. Where two headings read alike, the source gives them in different places.

Tests used:
[1] = tested on: telomeres, 36B4, MT-COX1, MT-CYB DNA of MKN45 cells; test: Oxidized bases (FPG-sensitive lesions) in genome regions by qPCR; assay type: cell-based, human; conditions: MKN45, IC50 concentration 24 h, normalized to control, single replicates
From the text: (§1) Total cellular DNA from MKN45 and PANC1 cells was extracted using an NZY Tissue gDNA Isolation Kit (Nzytech, MB13503) following the manufacturer’s instructions and quantified using a Nanodrop (Nanodrop Spectrophotometer ND-1000, ThermoFisher Scientific, Wilmington, DE, USA). We adapted the procedure described by O’Callaghan et al.[76] to measure oxidative DNA damage at telomeres, 36B4 genomic region and at mitochondrial DNA (MT-COX1, MT-CYB). This is a qPCR method based on differences in PCR kinetics between DNA template digested by Formamidopyrimidine DNA Glycosylase (FPG, Cat no. M0240S) and undigested DNA. This enzyme recognizes and cuts 8-oxoguanine, producing apurinic sites that are converted into single-strand breaks by its apurinic sites lyase activity. These single-strand breaks inhibit the PCR, thus, the ΔCT after digesting DNA by […] (Ct digested–Ct undigested) is proportional to the oxidative damage in the amplified region. DNA was incubated with 8 Units of FPG during 3 h in FPG buffer (NEB1, M0240S). The reaction was stopped by incubation at 95 °C for 5 min. qPCR analysis was performed on 40 ng of digested or undigested genomic DNA. Each qPCR was performed in triplicate including no-template controls in a StepOne Real‐time PCR System (Applied Biosystems, 4376357). Target genes (Table 3) were amplified using SYBR Green (Applied Biosystems, MB345). Thermal cycling of the qPCR reaction was initiated with a denaturation step at 95 °C for 10 min. The process consisted of 40 cycles (denaturation at 95 °C for 15 sec, annealing at 60 °C for 30 sec, and elongation at 72 °C for 30 sec). This experiment was repeated three independent times with 10–12 replicates.

[2] = tested on: telomeres, 36B4, MT-COX1, MT-CYB DNA of PANC1 cells; test: as above; assay type: cell-based, human; conditions: PANC1, IC50 concentration 24 h, normalized to control, single replicates
From the text: as §1

[3] = tested on: PANC1 cells; test: Cell viability, crystal violet staining; conditions: read-out: IC50 concentration (± SD) at 48 h, 48 h
Protocol: (§2) Cell viability was assessed using a crystal violet-based staining method. […] The cells (2 × 10^5) were seeded in 24-multiwell dishes in 0.5 mL of complete medium and incubated overnight. […] After 48 h, cells were fixed with 1% glutaraldehyde (20–30 min), washed with distilled water, and stained with 0.1% crystal violet. […] IC50 were calculated by using GraphPad Prism (version 8.0). Nonlinear regression was used to fit the data to the log (inhibitor) versus response (variable slope).

[4] = tested on: MKN45 cells; test: Cell viability, crystal violet staining; conditions: read-out: IC50 concentration (± SD) at 48 h, 48 h
Protocol: as §2

[5] = tested on: AGS cells; test: Cell viability, crystal violet staining; conditions: read-out: IC50 concentration (± SD) at 48 h, AGS, 48 h
Protocol: as §2

[6] = tested on: PANC1 cells; test: SA-β-Gal activity, CellEvent Senescence Green flow cytometry;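 note: IC50 concentration of each compound relative to untreated control set as 1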; assay type: cell-based, human; conditions: Fig. 3A, replicate values
Procedure, shortened: (§3)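 AGS, MKN45 or PANC1 cells (5×10^4) were seeded in 24-well plates overnight before treatment. For flow cytometry, cells were PFA-fixed and stained with CellEvent Senescence Green probe (1:500), read at ex 488/em 530/30 nm. For histochemistry, cells were treated 3 h, then kept 24 h in fresh medium before SA-β-Gal staining.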

[7] = tested on: AGS cells; test: as above; assay type: cell-based, human; conditions: Fig. 3A, replicate values
Procedure, shortened: as §3

[8] = tested on: MKN45 cells; test: Clonogenic (CFU) assay with or without NAC; assay type: cell-based, human; conditions: 10 days
Protocol: (§4) For the clonogenic assay we used two different approaches. […] Then, cells were cultured in a 6-well plate at a very low concentration (2 × 10^3 cells per well) and incubated for 10 days. […] To evaluate the role of ROS in cell proliferation, we supplemented the growth medium with 0.5 mM NAC. After 10 days, the cells were fixed with 1% glutaraldehyde and stained with 0.1% crystal violet. The number of colonies was quantified directly and reflected as CFUs: Colony Forming Units.

[9] = tested on: AGS cells; test: Clonogenic (CFU) assay with or without NAC; assay type: cell-based, human; conditions: IC50 concentration, 10 days
Protocol: as §4

[10] = tested on: CC2509 fibroblasts; test: Cell viability, crystal violet staining, non-tumoral cells; conditions: read-out: IC50 concentration (± SD) at 48 h in non-tumoral cell lines; CC2509, 48 h
Protocol: as §2

[11] = tested on: HPDE cells; test: as above; conditions: read-out: IC50 concentration (± SD) at 48 h in non-tumoral cell lines
Protocol: as §2
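Throughout, for Fold change % Senescence: IC50 concentration of each compound relative to untreated control set as 1.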

IC50 ([3]; PANC1, NAC (+) 0.5 mM): 9.46 ± 1.29 µM | IC50 ([3]; PANC1, NAC (-)): 10 µM and 12.3 µM | IC50 ([4]; MKN45, NAC (+) 0.5 mM): 10.2 ± 1.56 µM | IC50 ([4]; MKN45, NAC (-)): 10 µM and 9.45 µM | IC50 ([5]; NAC (+) 0.5 mM): 22.7 ± 4.03 µM | IC50 ([5]; NAC (-)): 26.7 ± 2.21 µM
SMILES: [NH2][Pt]([NH2])([Cl])[Cl] [CDDP, cisplatin, reference compound]
TEL (Fold change - ΔCt TEL), oxidative DNA damage ([1]; FPG-digested vs undigested): 2.134 and 3.241 and 3.532 and 0.2864 and 0.7917 and 1.101 and 0.9693 and 0.9768 and 0.981 and 0.9672 | 36B4 (Fold change - ΔCt 36B4), oxidative DNA damage [1]: 0.8255 and 0.8326 and 1.095 and 1.237 and 1.611 and 1.72 and 2.271 and 2.214 and 1.327 and 2.203 | MT-COX1 (Fold change - ΔCt MT-COX1), oxidative DNA damage [1]: 1.028 and 1.042 and 1.044 and 1.141 and 0.8202 and 0.6032 and 2.316 and 2.623 and 3.028 | MT-CYB (Fold change - ΔCt MT-CYB), oxidative DNA damage [1]: 1.38 and 1.409 and 1.605 and 1.1947 and 1.217 and 1.312 and 1.3882 and 2.275 and 1.316 and 2.313 | TEL (Fold change - ΔCt TEL), oxidative DNA damage ([2]; FPG-digested vs undigested): 4.038 and 4.138 and 5.415 and 0.6214 and 0.3967 and 0.9429 and 1.679 and 1.417 and 1.6318 and 1.586 | 36B4 (Fold change - ΔCt 36B4), oxidative DNA damage [2]: 1.144 and 1.346 and 0.8021 and 1.678 and 2.371 and 2.867 and 3.452 and 2.312 and 2.5645 | MT-COX1 (Fold change - ΔCt MT-COX1), oxidative DNA damage [2]: 1.1557 and 1.18 and 1.253 and 1.195 and 2.153 and 0.9478 and 1.587 and 1.014 and 1.075 and 1.118 | MT-CYB (Fold change - ΔCt MT-CYB), oxidative DNA damage [2]: 1.618 and 1.296 and 1.304 and 1.472 and 1.131 and 1.532 and 1.619 and 1.965 and 6.543 and 5.482 and 6.158 and 5.629 | Fold change % Senescence [6]: 1.64 fold change and 1.11 fold change and 1.53 fold change | Fold change % Senescence [7]: 1.16 fold change and 1.15 fold change and 1.2 fold change | colonies (CFUs), mean ± SD ([8]; MKN45 + NAC 0.5 mM, IC50 concentration): 1 ± 1.4 | colonies (CFUs), mean ± SD ([8]; MKN45, IC50 concentration, no NAC): 1 ± 1 | colonies (CFUs), mean ± SD ([9]; AGS + NAC 0.5 mM): 0.7 ± 0.6 | colonies (CFUs), mean ± SD ([9]; AGS, no NAC): 0 | IC50 [10]: 25 µM and 23.8 µM | IC50 [11]: 0.45 ± 0.05 µM
